Assay results from patent publication US20230124862A1, “BISMUTH THIOL COMPOUNDS AND COMPOSITIONS AND METHODS OF TREATING MICROBIAL CO-INFECTIONS” (Microbion Corporation, priority 2020, published 2023).
Converted amounts (≈) assume the structure as drawn. Read-outs that look alike come from different tables or passages of the source.

Legend:
[1] = system: Enterobacteriaceae; assay: Broth microdilution MIC (Example 11); type: cell-based, E. coli, K. pneumoniae, Enterobacter cloacae
[2] = system: Escherichia coli; assay: Broth microdilution MIC (Example 12); type: cell-based
[3] = system: Klebsiella pneumoniae; assay: Broth microdilution MIC (Example 12); type: cell-based
[4] = system: Pseudomonas aeruginosa; assay: Broth microdilution MIC (Example 12); type: cell-based
[5] = system: Acinetobacter baumannii; assay: Broth microdilution MIC (Example 12); type: cell-based
[6] = system: Gram-positive aerobic bacteria (S. aureus, MRSA, CA-MRSA); assay: MIC90 against 150 clinical isolates of Gram-positive aerobic bacteria; type: cell-based; settings: S. aureus (50 isolates)
[7] = system: Enterobacteriaceae; settings: E. coli (MMX 102), QC; cited from earlier work
[8] = system: P. aeruginosa and A. baumannii; settings: P. aeruginosa (MMX 103), QC; cited from earlier work
[9] = system: Escherichia coli; settings: E. coli ATCC 25922; CLSI established QC range; cited from earlier work
[10] = system: Pseudomonas aeruginosa; settings: P. aeruginosa ATCC 27853; CLSI established QC range; cited from earlier work
[11] = system: P. aeruginosa; assay: Broth microdilution MIC (Example 10); type: cell-based, Pseudomonas aeruginosa; settings: initial MIC testing
[12] = system: Burkholderia cepacia complex; type: cell-based, Burkholderia spp.; settings: initial MIC testing
[13] = system: P. aeruginosa; assay: Checkerboard FIC/FICI assay; type: cell-based, Pseudomonas aeruginosa; settings: during FIC testing
[14] = system: Burkholderia cepacia complex; assay: Checkerboard FIC/FICI assay; type: cell-based, Burkholderia spp.; settings: during FIC testing
[15] = system: P. aeruginosa; settings: P. aeruginosa isolate 103; CLSI QC range in parenthesis; cited from earlier work
[16] = system: P. aeruginosa; settings: P. aeruginosa isolate 103; CLSI QC range in parenthesis; cited from earlier work; remark: listed apart in the source

CC(C)(O/N=C(\C(=O)N[C@@H]1C(=O)N2C(C(=O)[O-])=C(C[n+]3ccccc3)CS[C@H]12)c1csc(N)n1)C(=O)O [CAZ]
MIC ([1]; E. cloacae (MMX 5981), NDM-1, LVX-R, MEM-R, CAZ-R, GEN-R): >32 µg/mL | MIC ([1]; E. coli (MMX 102), QC): 0.12 µg/mL (≈ 0.22 µM) | MIC ([1]; E. coli (MMX 5980), NDM-1, LVX-R, MEM-R, CAZ-R, GEN-R): >32 µg/mL | MIC ([1]; E. coli (MMX 8423), ESBL, LVX-R, CAZ-R, GEN-R): 32 µg/mL (≈ 58.5 µM) | MIC ([1]; E. coli (MMX 8424), ESBL, CAZ-R): 16 µg/mL (≈ 29.3 µM) | MIC ([1]; E. coli (MMX 8425), ESBL, LVX-R, CAZ-R, GEN-R): 16 µg/mL (≈ 29.3 µM) | MIC ([1]; K. pneumoniae (MMX 4622), KPC-2, MEM-R, CAZ-R): >32 µg/mL | MIC ([1]; K. pneumoniae (MMX 4623), KPC-2, MEM-R, CAZ-R, GEN-R): >32 µg/mL | MIC ([1]; K. pneumoniae (MMX 4653), KPC-3, LVX-R, MEM-R, CAZ-R): >32 µg/mL | MIC ([1]; K. pneumoniae (MMX 4683), KPC-2, LVX-R, MEM-R, CAZ-R): >32 µg/mL | MIC ([1]; K. pneumoniae (MMX 4684), ESBL, MEM-R): 8 µg/mL (≈ 14.6 µM) | MIC ([1]; K. pneumoniae (MMX 4685), ESBL, LVX-R, MEM-R, CAZ-R): >32 µg/mL | MIC ([1]; K. pneumoniae (MMX 4694), KPC-3, LVX-R, MEM-R, CAZ-R): >32 µg/mL | MIC ([1]; K. pneumoniae (MMX 5979), NDM-1, LVX-R, MEM-R, CAZ-R, GEN-R): >32 µg/mL | MIC ([2]; E. coli ATCC 25922, ATCC QC organism (Table 102)): 0.25 µg/mL (≈ 0.457 µM) | MIC ([2]; E. coli ATCC 35218, ATCC QC organism (Table 102)): 0.12 µg/mL (≈ 0.22 µM) | MIC ([2]; E. coli ATCC 35218, ESBL): 0.12 µg/mL (≈ 0.22 µM) | MIC ([2]; E. coli ATCC BAA-2471, NDM): >64 µg/mL | MIC ([2]; E. coli CDC 114, ESBL/KPC): >64 µg/mL | MIC ([2]; E. coli CDC 118, ESBL/NDM): >64 µg/mL | MIC ([2]; E. coli CDC 435, NDM): >64 µg/mL | MIC ([2]; E. coli CDC 451, KPC): 64 µg/mL (≈ 117 µM) | MIC ([2]; E. coli CDC 503, ESBL/NDM): >64 µg/mL | MIC ([2]; E. coli MMX 5745, KPC): 32 µg/mL (≈ 58.5 µM) | MIC ([2]; E. coli MMX 5755, ESBL): >64 µg/mL | MIC ([2]; E. coli MMX 5756, ESBL): >64 µg/mL | MIC ([2]; E. coli MMX 5758, ESBL): 16 µg/mL (≈ 29.3 µM) | MIC ([3]; K. pneumoniae ATCC BAA-1705, ATCC QC organism (Table 102)): >64 µg/mL | MIC ([3]; K. pneumoniae ATCC BAA-1705, ESBL/KPC): >64 µg/mL | MIC ([3]; K. pneumoniae CDC 112, KPC): >64 µg/mL | MIC ([3]; K. pneumoniae CDC 113, ESBL/KPC): >64 µg/mL | MIC ([3]; K. pneumoniae CDC 115, ESBL/KPC): >64 µg/mL | MIC ([3]; K. pneumoniae CDC 120, ESBL/KPC): >64 µg/mL | MIC ([3]; K. pneumoniae CDC 126, ESBL/KPC): 4 µg/mL (≈ 7.32 µM) | MIC ([3]; K. pneumoniae CDC 129, ESBL/KPC): >64 µg/mL | MIC ([3]; K. pneumoniae CDC 135, ESBL/VIM): >64 µg/mL | MIC ([3]; K. pneumoniae CDC 138, ESBL/NDM): >64 µg/mL | MIC ([3]; K. pneumoniae CDC 158, ESBL/NDM/OXA): >64 µg/mL | MIC ([3]; K. pneumoniae MMX 9029, ESBL): 4 µg/mL (≈ 7.32 µM) | MIC ([4]; P. aeruginosa ATCC 27853, ATCC QC organism (Table 102)): 2 µg/mL (≈ 3.66 µM) | MIC ([4]; P. aeruginosa CDC 230, VIM/OXA): 64 µg/mL (≈ 117 µM) | MIC ([4]; P. aeruginosa CDC 231, KPC/OXA): >64 µg/mL | MIC ([4]; P. aeruginosa CDC 241, IMP/OXA): >64 µg/mL | MIC ([4]; P. aeruginosa CDC 246, NDM/OXA): >64 µg/mL | MIC ([4]; P. aeruginosa CDC 250, NDM/OXA): >64 µg/mL | MIC ([4]; P. aeruginosa CDC 356, KPC): 64 µg/mL (≈ 117 µM) | MIC ([4]; P. aeruginosa CDC 439, IMP): >64 µg/mL | MIC ([4]; P. aeruginosa CDC 444, VIM): 32 µg/mL (≈ 58.5 µM) | MIC ([4]; P. aeruginosa CDC 457, VIM): >64 µg/mL | MIC ([4]; P. aeruginosa CDC 516, KPC/AmpC): 64 µg/mL (≈ 117 µM) | MIC ([4]; P. aeruginosa CDC 518, KPC/AmpC): 32 µg/mL (≈ 58.5 µM) | MIC ([5]; A. baumannii CDC 273, ESBL/OXA): 64 µg/mL (≈ 117 µM) | MIC ([5]; A. baumannii CDC 274, ESBL/OXA): >64 µg/mL | MIC ([5]; A. baumannii CDC 275, ESBL/OXA): >64 µg/mL | MIC ([5]; A. baumannii CDC 277, ESBL/OXA): >64 µg/mL | MIC ([5]; A. baumannii CDC 284, ESBL/OXA): 64 µg/mL (≈ 117 µM) | MIC ([5]; A. baumannii CDC 307, OXA): 64 µg/mL (≈ 117 µM) | MIC ([5]; A. baumannii CDC 308, ESBL/OXA): 64 µg/mL (≈ 117 µM) | MIC ([5]; A. baumannii CDC 311, OXA): >64 µg/mL | MIC ([5]; A. baumannii CDC 312, OXA): >64 µg/mL | MIC ([5]; A. baumannii CDC 313, ESBL/OXA): >64 µg/mL | MIC ([5]; A. baumannii NCTC 13304, OXA): >64 µg/mL | MIC90 ([6]; CA-MRSA): >64 µg/mL | MIC90 ([6]; MRSA): >64 µg/mL | MIC90 ([6]; MSSA): 16 µg/mL (≈ 29.3 µM) | CLSI Quality Control Range (MIC) [7]: (0.06-0.5) μg/mL | CLSI Quality Control Range (MIC) [8]: (1.4) | QC range of MIC [9]: (0.06-0.5) μg/mL | QC range of MIC [10]: (1-4) μg/mL

NC[C@H]1O[C@H](O[C@H]2[C@H](O)[C@@H](O[C@H]3O[C@H](CO)[C@@H](O)[C@H](N)[C@H]3O)[C@H](N)C[C@@H]2N)[C@H](N)C[C@@H]1O [TOB]
MIC ([11]; P. aeruginosa isolate 103, QC strain): 1 µg/mL (≈ 2.14 µM) | MIC ([11]; P. aeruginosa isolate 1497 (TOB-R AMK-R, CIP-I, AZT-R, COL-R)): 16 µg/mL (≈ 34.2 µM) | MIC ([11]; P. aeruginosa isolate 1530 (TOB-R, AMK-R, CIP-R)): 32 µg/mL (≈ 68.4 µM) | MIC ([11]; P. aeruginosa isolate 1553 (TOB-R, AMK-R, CIP-R)): >256 µg/mL | MIC ([11]; P. aeruginosa isolate 6322 (MEM-R, TOB-R, AMK-R, CIP-R, AZT-R)): 128 µg/mL (≈ 274 µM) | MIC ([11]; P. aeruginosa isolate 6977 (MEM-I, TOB-R, CIP-R, AZT-I)): 128 µg/mL (≈ 274 µM) | MIC ([11]; P. aeruginosa isolate 7745 (MEM-R, CIP-R, AZT-R)): 0.5 µg/mL (≈ 1.07 µM) | MIC ([11]; P. aeruginosa isolate 7754 (MEM-R, TOB-R, CIP-R, AZT-I)): 32 µg/mL (≈ 68.4 µM) | MIC ([11]; P. aeruginosa isolate 7762 (MEM-I, CIP-I)): 1 µg/mL (≈ 2.14 µM) | MIC ([11]; P. aeruginosa isolate 7871 (MEM-R, AZT-I)): 0.5 µg/mL (≈ 1.07 µM) | MIC ([11]; P. aeruginosa isolate 7874): 0.5 µg/mL (≈ 1.07 µM) | MIC ([11]; P. aeruginosa isolate 7886 (MEM-R, CIP-R, AZT-R)): 1 µg/mL (≈ 2.14 µM) | MIC ([11]; P. aeruginosa isolate 8797 (MEM-R, TOB-R, AMK-R, CIP-R, AZT-R, COL-R)): >256 µg/mL | MIC ([11]; P. aeruginosa isolate 8798 (MEM-R, TOB-R, AMK-R, CIP-R, AZT-R, COL-R)): 32 µg/mL (≈ 68.4 µM) | MIC ([11]; P. aeruginosa isolate 9108 (CIP-R, AZT-I)): 0.5 µg/mL (≈ 1.07 µM) | MIC ([12]; B. cenocepacia isolate 0548 (CIP-R)): 64 µg/mL (≈ 137 µM) | MIC ([12]; B. cenocepacia isolate 0813 (CPI-I)): 256 µg/mL (≈ 548 µM) | MIC ([12]; B. cepacia isolate 0546): 64 µg/mL (≈ 137 µM) | MIC ([12]; B. cepacia isolate 1793): 64 µg/mL (≈ 137 µM) | MIC ([12]; B. cepacia isolate 1794): 64 µg/mL (≈ 137 µM) | MIC ([12]; B. cepacia isolate 9040): 8 µg/mL (≈ 17.1 µM) | MIC ([12]; B. multivorans isolate 1791): 64 µg/mL (≈ 137 µM) | MIC ([12]; B. multivorans isolate 5665 (CIP-I)): 64 µg/mL (≈ 137 µM) | MIC ([12]; B. multivorans isolate 8952 (CIP-I)): 16 µg/mL (≈ 34.2 µM) | MIC ([13]; isolate 103 (ATCC 25922), each agent tested alone for QC, one replicate): 1 µg/mL | MIC ([13]; isolate 6322): 128 µg/mL | MIC ([13]; isolate 6977): 128 µg/mL | MIC ([13]; isolate 7745): 0.5 µg/mL | MIC ([13]; isolate 8798): 16 µg/mL | MIC ([13]; isolate 9108): 0.5 µg/mL | MIC ([14]; B. cenocepacia isolate 0548): 32 µg/mL | MIC ([14]; B. cenocepacia isolate 0813): 256 µg/mL | MIC ([14]; B. cepacia isolate 0546): 32 µg/mL | MIC ([14]; B. cepacia isolate 1793): 16 µg/mL | CLSI QC range of MIC [15]: (0.25-1) μg/mL | CLSI QC range of MIC [16]: (0.25-1) μg/mL
